Data taken from publication PMC7311950, “Potent Tetrahydroquinolone Eliminates Apicomplexan Parasites” (Frontiers in Cellular and Infection Microbiology, 2020).
Where two headings read alike, the source gives them in different places.

Columns and labels:
[1] = tested on: T. gondii RH-YFP tachyzoites; test: In vitro challenge assay, RH strain YFP tachyzoites in HFF; format: cell-based; conditions: Toxoplasma gondii
[2] = Metabolic stability in human liver microsomes; conditions: for Human liver microsomes: stability, Figure 2E
Procedure: (§1) The effects of changing R1 as 7-Et, 7-Me, 6-CF3, or 6-Me on activity against RH strain tachyzoites, kinetic solubility, and metabolic stability were compared. Kinetic solubility and metabolic stability in human or murine liver microsomes were measured. The hERG (human Ether-à-go-go-Related) liability was also determined. The hERG gene (KCNH2) encodes a protein Kv11.1, the alpha subunit of a potassium ion channel. This channel conducts the rapid component of the delayed rectifier potassium current, IKr, which is critical for repolarization of cardiac action potentials. A reduction in hERG currents from adverse drug effects can lead to long QT interval syndromes. These syndromes are characterized by action potential prolongation, lengthening of the QT interval on surface EKG, and an increased risk for “torsade de pointes” arrhythmias and sudden death. The MDCK-MDR1 Permeability Assay was also performed. MDCK-MDR1 refers to the ability of a compound to permeate across membranes of MDCK-MDR1 (Madin Darby canine kidney [MDCK] cells with the MDR1 gene [ABCB1], the gene encoding for the efflux protein, P-glycoprotein (P-gp)) in vitro. Assessing transport in both directions (apical to basolateral and basolateral to apical) across the cell monolayers enables an efflux ratio to be determined. […] This provides a prediction of blood brain barrier (BBB) penetration potential/permeability and efflux ratio. Effect in CACO-2 (Colon Adenocarcinoma cells) as a permeability assay and on cytochrome P450 (CYP 450) were also determined. CYP enzymes catalyze oxidative biotransformation (phase 1 metabolism) of most drugs. CYP enzymes, bind to membranes in a cell (cyto) and contain a heme pigment (chrome and P) that absorbs light at a wavelength of 450 nm when exposed to carbon monoxide. Metabolism of a drug by CYP enzymes is a major source of variability in drug effect. These were measured by Chem Partners. The relative effect on HFF and parasite enzymes also were compared.
(§2) In vitro absorption, distribution, metabolism, excretion, and toxicity (ADMET) analyses of the THQ compounds were outsourced to ChemPartner Shanghai Ltd. ELQ-271 (synthesized in-house) was tested as a comparison.

[3] = Metabolic stability in mouse liver microsomes; conditions: for half-life: mouse, liver microsomes
Procedure: as §1, §2

[4] = tested on: P. falciparum strains D6, TM91-C235, W2, C2B; test: Malaria SYBR Green I-Based Fluorescence (MSF) assay; format: cell-based; conditions: Plasmodium falciparum
Procedure: Malaria potency testing in vitro was performed using 4 different P. falciparum strains, D6, TM91-C235, W2, and C2B. The D6 strain is a drug sensitive strain from Sierra Leone, the TM91-C235 strain is a multi-drug resistant strain from Thailand, the W2 strain is a chloroquine resistant strain from Thailand, and the C2B strain is a multi-drug resistant strain with resistance against atovaquone. These assays were performed as described below.
Compound activity against P. falciparum, was tested using the Malaria SYBR Green I–Based Fluorescence (MSF) Assay. The complete method for performing this microtiter assay is described in previous work published by Plouffe et al. ([2008]) and Johnson et al. ([2007]). In brief, this assay uses the binding of the fluorescent dye SYBR Green I to malaria DNA to measure parasite growth in the presence of 2-fold diluted experimental or control. The relative fluorescence of the intercalated SYBR Green I proportional to parasite growth, and inhibitory compounds will result in lower observed fluorescence compared to untreated parasites.

[5] = RH-YFP tachyzoites in HFF, Figure 1A, read-out: Tachy IC50
[6] = T. gondii tachyzoites, initial library, read-out: IC50
[7] = T1/2 (M), predicted half-life in mouse liver microsomes, Figure 1A, min in Figure 2E for the same values
[8] = C2B, multi-drug resistant strain with resistance against atovaquone, read-out: SYBR Green C2B IC50
[9] = D6, drug sensitive strain, read-out: SYBR Green D6 IC50
[10] = TM91-C235, multi-drug resistant strain, read-out: SYBR Green C235 IC50
[11] = W2, chloroquine resistant strain, read-out: SYBR Green W2 IC50

SMILES	IC50 [1, 5]	IC50 [1, 6]	IC90 ([1]; supplement summary)	remaining in human liver microsomes ([2]; after 45 min)	Human liver microsomes [2]	half-life [3, 7]	half-life ([3]; half-life in mouse liver microsomes)	Mouse liver microsomes ([3]; stability, Figure 2E)	IC50 [4, 8]	IC50 ([4]; D6, TM91-C235, W2 and C2B, range over strains, read-out: IC50 values against drug sensitive and resistant strains)	IC50 [4, 9]	IC50 [4, 10]	IC50 [4, 11]	IC90 ([4]; supplement summary, read-out: IC90, drug resistant Plasmodium falciparum in vitro)	half-life ([2]; human, liver microsomes)	Mouse liver microsomes [3]
Cc1[nH]c2c(c(=O)c1-c1ccc(Oc3ccc(OC(F)(F)F)cc3)cc1)CCCC2 [JAG21, 2-Methyl-3-(4-(4-(Trifluoromethoxy)Phenoxy)Phenyl)-5,6,7,8-Tetrahydroquinolin-4-One]	120 nM	55 nM	< 50 nM	> 99%	∞	1.68 h	1.68 h	101.09 min	40.4 nM	14 to 61 nM	14.3 nM	61.6 nM	55.2 nM	< 50 nM	–	–
Cc1[nH]c2c(c(=O)c1-c1ccc(Oc3ccc(Cl)cc3)cc1)CCCC2 [JAG50]	85 nM	33 nM	–	–	99.04 min	1.14 h	–	–	36.4 nM	–	46.6 nM	69.1 nM	31.4 nM	–	1.65 h	68.55 min
